Tests used:
βCatenin-BCL9 = assay: ELISA based protein-protein interaction assay; format: binding; details: inhibition class of the βCatenin-BCL9 interaction
Experimental: In vitro ELISA-based Protein-protein Interaction Assay
Protein Production in Bacteria
cDNAs including the binding domains of Lgs and βCatenin were fused downstream of glutathione-S-transferase (GST) cDNA in pGEX-4T inducible bacterial expression vector (Pharmacia). Fusion proteins were produced in BL21 bacteria (e.g. Stratagene) following manufacturer's recommendation.
To isolate the produced fusions protein bacteria were lysed in sonication buffer (10 mM Tris HCl pH 8.0, 150 mM NaCl, 1 mM EDTA, 1.5% sarkosyl, 2% Triton-X-100, 1 mM DTT and protease inhibitors), followed by short sonication on ice (e.g. 3 times 20 seconds at middle power) and centrifugation. Cleared supernatants were incubated under gentle rotation with glutathione beads (Amersham Pharmacia) for 2 hrs at 4° C. Finally, beads were washed several time in washing buffer (20 mM Tris pH 8.0, 200 mM NaCl, 1 mM EDTA, 1 mM DTT, 1 mM MgCl2, 0.5% NP40), and stored in storage buffer (20 mM Tris pH 8.0, 200 mM NaCl, 1 mM EDTA, 1 mM DTT, 1 mM MgCl2, 10% glycerol, 0.5% NP40, and proteinase inhibitors). The quality of the preparations was checked by SDS-gel electrophoresis by standard methods well known by persons skilled in the art. […]

Wnt pathway = assay: Cell Assay (CA): inhibition of Wnt activity in cancer cells, Tcf reporter gene; format: cell-based; details: inhibition class in the Cell Assay
Description: Inhibition of Wnt Activity in Cancer Cells
The effect of β-catenin/BCL9 inhibitors identified in the ELISA-based protein-protein interaction assay on the Wnt pathway can be evaluated in a cell culture system using a reporter gene responsive to the Tcf/Lef family of transcription factors or by quantitative analysis of Wnt target genes in appropriate cell lines.
A reporter gene is a construct which comprises a readily detectable or assayable gene such β-galactosidase, green fluorescent protein, chloramphenicol acetyltransferase or luciferase, linked in cis to a transcription factor response element and a minimal promoter. Depending on the expression vectors used, this protocol can be applied, e.g. for mammalian as well as for Drosophila cell lines. For instance, colon cancer cells with constitutively active Wnt pathway like DLD-1 or SW620 (ATCC) are a well suitable system. Hereby, a Tcf-4 driven luciferase reporter plasmid (i.e. TOP-FLASH, Upstate biotechnology, New York, USA) is transiently or stably transfected into cells known in the art. Any means for introducing genetic material into cells can be used, including but not limited to infection, electroporation or transfection. For instance, to introduce DNA into DLD-1 cells, a lipofection agent like the Lipofectamine transfection reagent (Life Technologies, Inc.) can be used. By transient transfection protocols, a second reporter gene, e.g. the renilla luciferase reporter plasmid pRL-SV40 (Promega Corporation, Madison USA), needs to be co-transfected to normalize for transfection efficiency. Drugs are added to the media 24 h after trans-fection (transient transfection) or 24 h after seeding of the cells (stably transfected cells). Cell extracts are prepared 24 to 48 h later and assayed for reporter gene activity as described by the manufacturer (eg. for luciferase activity: Promega Corporation). Compounds reducing reporter gene activity more than 50% compared to solvent alone treated cells are considered as hits. In parallel, toxicity can be assessed for instance by the yellow tetrazolium salt cell proliferation assay (MTT) assay.

| SMILES | ELISA (βCatenin-BCL9) | CA (Wnt pathway) |
| --- | --- | --- |
| O=C(NNc1ccc([N+](=O)[O-])cc1S(=O)(=O)Nc1ccccc1Cl)c1cc(Cl)cc(Cl)c1 [TGC0011568] | 1.5 | 4 (61-80% inhibition) |
| CC(=O)c1ccc(S(=O)(=O)NNc2ccc([N+](=O)[O-])cc2S(=O)(=O)Nc2ccccc2Cl)cc1 [TGC0011581] | 2 (21-40% inhibition) | 1 (0-20% inhibition) |
| O=[N+]([O-])c1ccc(N/N=C/c2cccc(Oc3ccccc3)c2)c(S(=O)(=O)Nc2ccccc2Cl)c1 [TGC0010583] | 2 (21-40% inhibition) | 4 (61-80% inhibition) |
| COC(=O)c1ccc(NS(=O)(=O)c2ccccc2Br)c(Cl)c1 [TGC0011499] | 1 (0-20% inhibition) | 1 (0-20% inhibition) |
| O=[N+]([O-])c1ccc(N/N=C/c2cccnc2)c(S(=O)(=O)Nc2ccccc2Cl)c1 [TGC0011402] | 2 (21-40% inhibition) | 4 (61-80% inhibition) |
| CCCCCC#C/C=N/Nc1ccc([N+](=O)[O-])cc1S(=O)(=O)Nc1ccccc1Cl [TGC0012276] | – | 4.5 |
| O=C1Nc2ccccc2/C1=N/Nc1ccc([N+](=O)[O-])cc1S(=O)(=O)Nc1ccccc1Cl [TGC0010663] | 2.5 | – |
| O=[N+]([O-])c1ccc(N/N=C/c2cccc(CN3CCOCC3)c2)c(S(=O)(=O)Nc2ccccc2Cl)c1 [TGC0011419] | 1.5 | 3 (41-60% inhibition) |
| Cc1cc(-c2ccccc2)n(-c2ccc([N+](=O)[O-])cc2S(=O)(=O)Nc2ccccc2Cl)n1 [TGC0011570] | 5 (81-100% inhibition) | 4 (61-80% inhibition) |
| C[n+]1cccc(/C=N/Nc2ccc([N+](=O)[O-])cc2S(=O)(=O)Nc2ccccc2Cl)c1.[I-] [TGC0011513] | – | 1 (0-20% inhibition) |
| Cn1cncc1C#Cc1ccccc1S(=O)(=O)Nc1ccccc1Cl [TGC0012268] | – | 2.5 |
| O=[N+]([O-])c1ccc(NNS(=O)(=O)c2ccc(Cl)cc2)c(S(=O)(=O)Nc2ccccc2Cl)c1 [TGC0011576] | 3 (41-60% inhibition) | 5 (81-100% inhibition) |
| O=[N+]([O-])c1ccc(N/N=C/c2ccccn2)c(S(=O)(=O)Nc2ccccc2Cl)c1 [TGC0011401] | 1.5 | 4 (61-80% inhibition) |
| CC(C)C/C=N/Nc1ccc([N+](=O)[O-])cc1S(=O)(=O)Nc1ccccc1Cl [TGC0012273] | – | 3.5 |
| O=[N+]([O-])c1ccc(N/N=C/c2cc(Cl)cc(Cl)c2)c(S(=O)(=O)Nc2ccccc2Cl)c1 [TGC0010536] | 2 (21-40% inhibition) | 5 (81-100% inhibition) |
| O=[N+]([O-])c1ccc(N/N=C/c2ccncc2)c(S(=O)(=O)Nc2ccccc2Cl)c1 [TGC0011403] | 2 (21-40% inhibition) | 4 (61-80% inhibition) |
| Cc1nn(-c2ccc(F)cc2)c(Cl)c1/C=N\Nc1ccc([N+](=O)[O-])cc1S(=O)(=O)Nc1ccccc1Cl [TGC0010674] | 2.5 | – |
| O=S(=O)(Nc1ccccc1Cl)c1cccc(Br)c1 [TGC0011158] | 1 (0-20% inhibition) | – |
| O=C(Cc1ccc(Cl)cc1)Nc1ccc(N2CCOCC2)c(S(=O)(=O)Nc2ccccc2Cl)c1 [TGC0011574] | 3 (41-60% inhibition) | 2.5 |
| O=C(O)c1ccc(CNNc2ccc([N+](=O)[O-])cc2S(=O)(=O)Nc2ccccc2Cl)cc1 [TGC0011589] | 5 (81-100% inhibition) | 4 (61-80% inhibition) |
| CC(=O)Nc1ccc(/C=N/Nc2ccc([N+](=O)[O-])cc2S(=O)(=O)Nc2ccccc2Cl)cc1 [TGC0011358] | 1.5 | 3 (41-60% inhibition) |
| O=[N+]([O-])c1ccc(N/N=C/c2ccc(CN3CCOCC3)cc2)c(S(=O)(=O)Nc2ccccc2Cl)c1 [TGC0011404] | 3 (41-60% inhibition) | 4 (61-80% inhibition) |
| O=[N+]([O-])c1ccc(NNCc2ccc(F)cc2)c(S(=O)(=O)Nc2ccccc2Cl)c1 [TGC0012257] | 1 (0-20% inhibition) | 1.5 |

| SMILES | ELISA (βCatenin-BCL9) | CA (Wnt pathway) |
| --- | --- | --- |
| Cc1cc(/C=N\Nc2ccc([N+](=O)[O-])cc2S(=O)(=O)Nc2ccccc2Cl)c(C)n1-c1ccc(Cl)cc1 [TGC0010673] | 1 (0-20% inhibition) | 4.5 |
| O=S(=O)(Nc1ccccc1Cl)c1ccccc1Cl [TGC0011155] | 1 (0-20% inhibition) | – |
| O=[N+]([O-])c1ccc(N/N=C/c2ccc(O)c(O)c2)c(S(=O)(=O)Nc2ccccc2Cl)c1 [TGC0008709] | 3.5 | 4 (61-80% inhibition) |
| O=[N+]([O-])c1ccc(N/N=C/c2ccccc2-c2cccnc2)c(S(=O)(=O)Nc2ccccc2Cl)c1 [TGC0011409] | 3.5 | 4.5 |
| O=S(=O)(Nc1ccccc1Cl)c1ccc(Cl)c(NS(=O)(=O)c2ccccc2Br)c1 [TGC0011493] | 1 (0-20% inhibition) | 1 (0-20% inhibition) |
| O=[N+]([O-])c1ccc(N/N=C/c2ccc(Oc3cccnc3)cc2)c(S(=O)(=O)Nc2ccccc2Cl)c1 [TGC0011406] | – | 4 (61-80% inhibition) |
| O=S(=O)(Nc1ccccc1Cl)c1ccccc1Br [TGC0011157] | 1 (0-20% inhibition) | – |
| COC(=O)c1ccc(C(=O)NNc2ccc([N+](=O)[O-])cc2S(=O)(=O)Nc2ccccc2Cl)cc1 [TGC0011562] | 2 (21-40% inhibition) | 1.5 |
| CC(=O)Nc1ccc(Cl)c(NS(=O)(=O)c2ccccc2Br)c1 [TGC0011502] | 1 (0-20% inhibition) | 1 (0-20% inhibition) |
| C[n+]1ccccc1/C=N/Nc1ccc([N+](=O)[O-])cc1S(=O)(=O)Nc1ccccc1Cl.[I-] [TGC0011514] | 1 (0-20% inhibition) | 1 (0-20% inhibition) |
| COC(=O)c1ccc(Cl)c(NS(=O)(=O)c2ccccc2Br)c1 [TGC0011494] | 1 (0-20% inhibition) | 1 (0-20% inhibition) |
| CC(=O)Nc1ccc(S(=O)(=O)NNc2ccc([N+](=O)[O-])cc2S(=O)(=O)Nc2ccccc2Cl)cc1 [TGC0011575] | 1 (0-20% inhibition) | 3 (41-60% inhibition) |
| O=[N+]([O-])c1ccc(N/N=C/c2ccc(Br)cc2)c(S(=O)(=O)Nc2ccccc2Cl)c1 [TGC0011421] | 2.5 | 4 (61-80% inhibition) |
| CCN1C(=O)/C(=N\Nc2ccc([N+](=O)[O-])cc2S(=O)(=O)Nc2ccccc2Cl)c2ccccc21 [TGC0010665] | 2 (21-40% inhibition) | 4 (61-80% inhibition) |
| CC/C=N/Nc1ccc([N+](=O)[O-])cc1S(=O)(=O)Nc1ccccc1Cl [TGC0011361] | 1 (0-20% inhibition) | 3.5 |
| O=[N+]([O-])c1ccc(NN=C(Cc2ccccc2)Cc2ccccc2)c(S(=O)(=O)Nc2ccccc2Cl)c1 [TGC0010661] | 2 (21-40% inhibition) | 3 (41-60% inhibition) |
| O=[N+]([O-])c1ccc(N/N=C/c2ccnc3ccccc23)c(S(=O)(=O)Nc2ccccc2Cl)c1 [TGC0011405] | – | 4.5 |
| COc1cc(Cl)cc(/C=N/Nc2ccc([N+](=O)[O-])cc2S(=O)(=O)Nc2ccccc2Cl)c1OCC(=O)O [TGC0011360] | 4.5 | – |
| O=[N+]([O-])c1ccc(N/N=C/c2cccc(OCCN3CCOCC3)c2)c(S(=O)(=O)Nc2ccccc2Cl)c1 [TGC0011420] | 1 (0-20% inhibition) | 2 (21-40% inhibition) |
| O=[N+]([O-])c1ccc(NNCc2ccc3nonc3c2)c(S(=O)(=O)Nc2ccccc2Cl)c1 [TGC0012260] | 4.5 | 1.5 |
| O=[N+]([O-])c1ccc(N/N=C/c2cc(Cl)cc(Cl)c2O)c(S(=O)(=O)Nc2ccccc2Cl)c1 [TGC0010527] | 3 (41-60% inhibition) | 4.5 |
| Cc1cc(-c2ccccc2)nn1-c1ccc([N+](=O)[O-])cc1S(=O)(=O)Nc1ccccc1Cl [TGC0011569] | 1.5 | 4 (61-80% inhibition) |
| O=S(=O)(Nc1cc(S(=O)(=O)N2CCOCC2)ccc1Cl)c1ccccc1Br [TGC0011498] | 1 (0-20% inhibition) | 1 (0-20% inhibition) |

Reference: patent US8088772B2, “Sulfonamides and their use as a medicament” (The Genetics Company, Inc., priority 2006, dated 2012)
